14 molecules from publication PMC6282443 (Journal of Enzyme Inhibition and Medicinal Chemistry, 2018) can be followed below.

Holding throughout (type): cell-based, human
One test has as its system MCF-7 cells. Kind of test: MTT anti-proliferative assay, MCF-7. Conditions: read-out: Anti-proliferative activity IC50, MCF-7. In general terms: Tetrazolium dyes change colour on reduction, which living cells bring about.
A further test concerns H1975 cells. Conditions: H1975, MTT; for IC50: read-out: Anti-proliferative activity IC50, H1975, 72 h.
The next test relates to HepG2 cells. Briefly: MTT anti-proliferative assay, HepG2. As to conditions: read-out: Anti-proliferative activity IC50, HepG2.
For a further test, the system named is A549 cells. Briefly: cells. Conditions: read-out: Anti-proliferative activity IC50, A549.

SMILES strings stand for the structures. Read-outs that look alike come from different tables or passages of the source.

One may read the IC50 as the concentration that inhibits the measured activity by half.

Regarding `COc1cc2ncnc(Nc3ccc(F)c(Cl)c3)c2cc1NC(=O)N/N=C/c1ccc(N2CCCC2)nc1` [Compound 17, (E)-N-(4-((3-chloro-4-fluorophenyl)amino)-7-methoxyquinazolin-6-yl)-2-((6-(pyrrolidin-1-yl)pyridin-3-yl)methylene) hydrazine-1-carboxamide], the concentration for half-maximal inhibition (IC50) in the test with MCF-7 cells (MCF-7, MTT, 72 h) stood at 12.9 ± 1.12 µM; in the test with H1975 cells, 35.3 ± 2.35 µM; with HepG2 cells (HepG2, MTT, 72 h) it was 13.2 ± 1.31 µM; in the test on A549 cells (A549, MTT, 72 h), 14.6 ± 1.21 µM.
In the case of `COc1cc2ncnc(Nc3ccc(F)c(Cl)c3)c2cc1NC(=O)N/N=C/c1ccc(CN(C)C)cc1` [Compound 19, (E)-N-(4-((3-chloro-4-fluorophenyl)amino)-7-methoxyquinazolin-6-yl)-2-(4-((dimethylamino)methyl)benzylidene)hydrazine-1-carboxamide], the 50% inhibitory concentration (IC50) in the test with MCF-7 cells (Homo sapiens, MCF7, 72 h) was found to be 3.8 ± 0.22 µM; in the test with HepG2 cells (Homo sapiens, HepG2, 72 h), 9.89 ± 0.96 µM; with A549 cells (Homo sapiens, A549, 72 h), 7.99 ± 0.82 µM. Moreover, in the test with H1975 cells, the “inhibitory activity against H1975 cells (in words)” value (“inhibitory activity” for short) is listed as “moderate inhibitory activity”.
In the same order, the values of `CCN(CC)Cc1ccc(/C=N/NC(=O)Nc2cc3c(Nc4ccc(F)c(Cl)c4)ncnc3cc2OC)cc1` [Compound 20, (E)-N-(4-((3-chloro-4-fluorophenyl)amino)-7-methoxyquinazolin-6-yl)-2-(4-((diethylamino)methyl)benzylidene)hydrazine-1-carboxamide] are 4.14 ± 0.57 µM, 9.49 ± 0.47 µM, 8.71 ± 0.54 µM and “poorer cellular activity”.
In the case of `COc1cc2ncnc(Nc3ccc(F)c(Cl)c3)c2cc1NC(=O)N/N=C/c1ccc(CN2CCCC2)cc1` [Compound 21, (E)-N-(4-((3-chloro-4-fluorophenyl)amino)-7-methoxyquinazolin-6-yl)-2-(4-(pyrrolidin-1-ylmethyl)benzylidene)hydrazine-1-carboxamide], the IC50 in the test on MCF-7 cells (Homo sapiens, MCF7, 72 h) came to 8.9 ± 0.48 µM; with HepG2 cells (Homo sapiens, HepG2, 72 h), 21.3 ± 1.47 µM; with A549 cells (Homo sapiens, A549, 72 h) it was 17.8 ± 1.22 µM. Moreover, the “inhibitory activity” value in the test with H1975 cells is recorded as “moderate inhibitory activity”.
Take `COc1cc2ncnc(Nc3ccc(F)c(Cl)c3)c2cc1NC(=O)N/N=C/c1ccc(CN2CCN(C)CC2)cc1` [Compound 24, (E)-N-(4-((3-chloro-4-fluorophenyl)amino)-7-methoxyquinazolin-6-yl)-2-(4-((4-methylpiperazin-1-yl)methyl)benzylidene)hydrazine-1-carboxamide]: the IC50 with MCF-7 cells (Homo sapiens, MCF7, 72 h) is 3.12 ± 0.38 µM; in the test on HepG2 cells (Homo sapiens, HepG2, 72 h), 2.86 ± 0.13 µM; with A549 cells (Homo sapiens, A549, 72 h), 4.32 ± 0.61 µM. In the test with H1975 cells, the “inhibitory activity” value was “moderate inhibitory activity”.
On the same counts, the results for `CN(C)Cc1ccc(/C=N/NC(=O)Nc2cc3c(Nc4ccc(F)c(Cl)c4)ncnc3cc2O[C@H]2CCOC2)cc1` [Compound 25, (S,E)-N-(4-((3-chloro-4-fluorophenyl)amino)-7-((tetrahydrofuran-3-yl)oxy)quinazolin-6-yl)-2-(4-((dimethylamino)methyl)benzylidene)hydrazine-1-carboxamide] are 4.41 ± 0.28 µM, 3.76 ± 0.21 µM, 4.13 ± 0.54 µM and “poorer cellular activity”.
For `COc1cc2ncnc(Nc3ccc(F)c(Cl)c3)c2cc1NC(=O)N/N=C/c1ccc(OCCN(C)C)cc1` [Compound 31, (E)-N-(4-((3-chloro-4-fluoropheny)amino)-7-methoxyquinazolin-6-yl)-2-(4-(2-(dimethylamino)ethoxy)benzylidene)hydrazine-1-carboxamide], the IC50 with MCF-7 cells (MCF-7, MTT, 72 h) turned out to be 37.2 ± 2.89 µM; in the test on H1975 cells, 45.3 ± 3.34 µM; in the test with HepG2 cells (HepG2, MTT, 72 h), 36.3 ± 2.57 µM; with A549 cells (A549, MTT, 72 h) it was 40.1 ± 4.03 µM.
`CCN(CC)CCOc1ccc(/C=N/NC(=O)Nc2cc3c(Nc4ccc(F)c(Cl)c4)ncnc3cc2OC)cc1` [Compound 32, (E)-N-(4-((3-chloro-4-fluoropheny)amino)-7-methoxyquinazolin-6-yl)-2-(4-(2-(diethylamino)ethoxy)benzylidene)hydrazine-1-carboxamide]: the half-inhibitory concentration (IC50) in the test on MCF-7 cells (MCF-7, MTT, 72 h) was 12.5 ± 1.24 µM; in the test on H1975 cells, 32.6 ± 3.45 µM; in the test with HepG2 cells (HepG2, MTT, 72 h) it was 13.2 ± 1.03 µM; in the test with A549 cells (A549, MTT, 72 h), 8.62 ± 1.13 µM. The “inhibitory activity” value with H1975 cells is “poorer cellular activity”.
On the same counts, the results for `COc1cc2ncnc(Nc3ccc(F)c(Cl)c3)c2cc1NC(=O)N/N=C/c1ccc(OCCN2CCCCC2)cc1` [Compound 34, (E)-N-(4-((3-chloro-4-fluoropheny)amino)-7-methoxyquinazolin-6-yl)-2-(4-(2-(piperidin-1-yl)ethoxy)benzylidene)hydrazine-1-carboxamide] are 9.21 ± 1.16 µM, 61.6 ± 5.67 µM, 12.7 ± 1.25 µM, 10.8 ± 1.43 µM and “poorer cellular activity”.
Turning to `COc1cc2ncnc(Nc3ccc(Cl)c(F)c3)c2cc1NC(=O)N/N=C/c1ccc(OCCN2CCOCC2)cc1` [Compound 35, (E)-N-(4-((4-chloro-3-fluorophenyl)amino)-7-methoxyquinazolin-6-yl)-2-(4-(2-morpholinoethoxy)benzylidene) hydrazine-1-carboxamide], the IC50 was 21.8 ± 1.34 µM in the test with MCF-7 cells (MCF-7, MTT, 72 h); 25.2 ± 1.35 µM in the test with H1975 cells; 16.5 ± 1.42 µM with HepG2 cells (HepG2, MTT, 72 h); 19.5 ± 1.35 µM with A549 cells (A549, MTT, 72 h).
Regarding `COc1cc2ncnc(Nc3ccc(F)c(Cl)c3)c2cc1NC(=O)N/N=C/c1ccc(OCCN2CCN(C)CC2)cc1` [Compound 36, (E)-N-(4-((3-chloro-4-fluoropheny)amino)-7-methoxyquinazolin-6-yl)-2-(4-(2-(4-methylpiperazin-1-yl)ethoxy)benzylidene)hydrazine-1-carboxamide], the IC50 in the test on MCF-7 cells (MCF-7, MTT, 72 h) turned out to be 6.2 ± 0.81 µM; with H1975 cells, 24.7 ± 1.86 µM; with HepG2 cells (HepG2, MTT, 72 h) it was 10.2 ± 1.09 µM; in the test with A549 cells (A549, MTT, 72 h) it was 11.4 ± 1.07 µM. In the test with H1975 cells, the “inhibitory activity” value was “poorer cellular activity”.
In the same order, the values of `CN(C)CCOc1ccc(/C=N/NC(=O)Nc2cc3c(Nc4ccc(F)c(Cl)c4)ncnc3cc2O[C@H]2CCOC2)cc1` [Compound 37, (S,E)-N-(4-((3-chloro-4-fluoropheny)amino)-7-((tetrahydrofuran-3-yl)oxy)quinazolin-6-yl)-2-(4-(2-(dimethylamino)ethoxy)benzylidene)hydrazine-1-carboxamide] are 11.7 ± 1.34 µM, 10.2 ± 1.12 µM, 8.2 ± 0.81 µM, 14.7 ± 1.35 µM and “moderate inhibitory activity”.
In the case of `O=C(N/N=C/c1ccc(OCCN2CCCC2)cc1)Nc1cc2c(Nc3ccc(F)c(Cl)c3)ncnc2cc1O[C@H]1CCOC1` [Compound 39, (S,E)-N-(4-((3-chloro-4-fluoropheny)amino)-7-((tetrahydrofuran-3-yl)oxy)quinazolin-6-yl)-2-(4-(2-(pyrrolidin-1-yl)ethoxy)benzylidene)hydrazine-1-carboxamide], the IC50 was 64.8 ± 5.35 µM in the test with MCF-7 cells (MCF-7, MTT, 72 h); above 100 µM in the test with H1975 cells; 67.3 ± 6.24 µM with HepG2 cells (HepG2, MTT, 72 h); 63.9 ± 5.35 µM with A549 cells (A549, MTT, 72 h).
On to `O=C(N/N=C/c1ccc(OCCN2CCCCC2)cc1)Nc1cc2c(Nc3ccc(F)c(Cl)c3)ncnc2cc1O[C@H]1CCOC1` [Compound 40, (S,E)-N-(4-((3-chloro-4-fluoropheny)amino)-7-((tetrahydrofuran-3-yl)oxy)quinazolin-6-yl)-2-(4-(2-(piperidin-1-yl)ethoxy)benzylidene)hydrazine-1-carboxamide], for which the IC50 worked out at 24.2 ± 1.23 µM in the test with MCF-7 cells (MCF-7, MTT, 72 h); 35.3 ± 2.35 µM in the test with H1975 cells; 17.4 ± 1.24 µM with HepG2 cells (HepG2, MTT, 72 h); 24.2 ± 1.24 µM with A549 cells (A549, MTT, 72 h).
